What was measured:
[1] = system: C57BL/6 j mice; design: method as in PMID 25848045; settings: high dose of 20 mg/kg; cited from earlier work
[2] = system: wild-type C. albicans cell wall β(1-3)-glucan exposure; test: fluorescence imaging of unmasked β(1-3)-glucan; type: cell-based, Candida albicans; settings: 170 µM, YPD
Experimental: Wild-type and cho1ΔΔ cells were grown in YPD overnight (~16 h), and back diluted to fresh YPD with OD600 of ~0.1. The cells were then shaken at 225 rpm for 3 h before 170 µM CBR-5884 or equivalent DMSO were added. The cells were further shaken for 30, 60, 120 min before staining with anti-β(1-3)-glucan antibody. The cells were stained as previously described ([57], [97]) with the exception that goat anti-mouse antibody conjugated to Alexa Fluor 488 (Jackson ImmunoResearch) was used as the secondary antibody. For imaging, Candida cells were resuspended in 200 µL of Fluoromount-G mounting medium and visualized with a Leica SP8 white light laser confocal microscope. The pictures were taken through Leica Application Suite X office software and quantified as described above.

[3] = system: in vivo PS production in wild-type C. albicans; test: metabolic labeling of PS using probe C-L-SerN3; type: cell-based, Candida albicans; settings: 170 µM CBR-5884, 1.5 mM probe
Experimental: The C-L-SerN3 probe [(S)-1-((3-azidopropyl)amino)-3-hydroxy-1-oxopropan-2-aminium chloride] was synthesized as described in reference ([59]). Cells grown overnight in YPD were washed three times in H2O and inoculated into minimal media at a starting OD600 of 0.05. Cells were shaken for 5 h before 1.5 mM C-L-SerN3 probe was added, along with 170 µM CBR-5884 or an equivalent volume of DMSO. Cells were then incubated for another 5 h before being washed three times with H2O, and 5% BSA in 1× PBS was used to treat cells for 20 min. The cells were then washed three times with 1× PBS and then resuspended to OD600 of 0.6 in 1 mL PBS + 1 µM AZDye 488 DBCO (Click chemistry tools, cat# 1278-1). Cells were covered with aluminum foil and rocked for 1 h, and the dye was removed by pelleting the cells at 5,000 × g followed by washing with shaking at 1,000 rpm three times in 1× PBS, and resuspended in 200 µL Fluoromount-G mounting medium (cat# 00-4958-02). For each treatment, 10 µL of cells was added to a glass slide and 3 µL fresh Fluoromount-G mounting medium was used to mix the sample. […] The samples were excited using light at a wavelength of 488 nm, and the resulting fluorescence was captured within the range of 498–550 nm using a HyD detector. […] A total of 40 cells from at least 10 images were used for the quantification in ImageJ software.

[4] = system: phospholipid levels in C. albicans; test: thin-layer chromatography of phospholipids; type: cell-based, Candida albicans; settings: 170 µM, 2 h
Experimental: Wild-type SC5314 and cho1ΔΔ strains grown overnight in YPD were inoculated into fresh YPD at OD600 of 0.1 and were shaken for another 3 h. Then, 170 µM CBR-5884 or equivalent DMSO solvent was added to both wild-type and cho1ΔΔ cultures, and cells were shaken for another 2 h. Then, cells were washed with 1× PBS three times and normalized to a total OD600 of 1. The phospholipids were extracted with the hot ethanol method as described in reference ([14]). A Whatman 250 µm silica gel aluminum backed plate was treated, and separation of phospholipids was carried out as described in reference ([100]). Phospholipid standards PI, PE, PS, and PC were purchased from Avanti. The quantification of the phospholipids was done in ImageJ software.

[5] = system: purified Cho1; test: CBR-5884 washout assay (radioactive PS synthase assay); type: biochemical, Candida albicans; settings: 100 µM preincubated 2 h, buffer exchange
Experimental: For CBR-5884 washout assays, purified Cho1 was incubated with CBR-5884 at a final concentration of 100 µM, or equivalent DMSO, in 100 µL volume on ice for 2 h. The CBR-5884 was then washed out by exchanging with 4 mL 50 mM Tris-HCl at pH 8.0 and 0.1% digitonin three times in the Amicon Ultra Centrifugal Filter (10 kDa MWCO). The sample was concentrated to the volume of approximately 500 µL, and protein concentration was determined using the Pierce detergent-compatible Bradford assay kit. The reaction was set up with 50 mM Tris-HCl (pH 8.0), 1 mM MnCl2, 0.1% Triton X-100, 0.1% digitonin, 0.1 mM (4.7 mol %), 16:0 CDP-DAG (Avanti, cat# 870510), and 10 mM L-serine [spiked with 5% (by volume) L-[3H]-serine (15 Ci/mmol)] at a total volume of 100 µL, in the presence of 100 µM CBR-5884 or equivalent DMSO solvent. The reaction was stopped at 20, 40, and 60 min, and specific activity was calculated based on the slope of linear PS production, representing the initial velocity.

[6] = precipitation in MIC media; type: physicochemical
[7] = type: physicochemical; settings: 12 h, 170 µM
Experimental: However, it was observed that the impact of CBR-5884 on cell growth was only temporary, with a delay lasting 12 h. […] To disentangle these two possibilities, experiments were conducted where both CBR-5884 and DMSO were subjected to 12 h of agitation at 30°C before being introduced to live cells. The growth of these cells was monitored over the next 14 h, with an OD600 measurement every 2 h, to assess the persistence of CBR-5884’s efficacy (Fig. 4F); in the meantime, cells that had been grown in 170 µM CBR-5884 for 12 and 24 h were transferred into fresh media containing new CBR-5884, which was allowed to grow for another 14 h, to probe the rising of resistance (Fig. 4G). In both experimental setups, cells grew slowly in the presence of CBR-5884 compound compared to DMSO control.
The growth curves with LOC14 and CBR-5884 treatments were measured from 2 to 30 h with OD600 measurements every 2 h. A final concentration of 170 µM CBR-5884, 430 µM LOC14, and 5 mM serine was added into each group as indicated. To test the stability of CBR-5884, minimal medium supplemented with 170 µM CBR-5884 or equivalent DMSO was agitated for 12 h before the introduction of wildtype C. albicans SC5314 strain, and growth curves were recorded from 0 to 14 h with OD600 measurement every 2 h. […] The growth curves were recorded from 0 to 14 h with OD600 measurement every 2 h. […]

Row | SMILES | tolerability [1] | β(1-3)-glucan unmasking vs wild-type in DMSO ([2]; 30-min treatment) | β(1-3)-glucan unmasking vs cho1ΔΔ mutant ([2]; 120-min treatment) | C-L-SerN3 fluorescence on the periphery of the cell [3] | PI levels [4] | relative PS level in wild-type strain vs DMSO [4] | relative PE levels ([4]; wild-type and cho1ΔΔ) | inhibition after preincubation and washout [5] | solubility in MIC media [6] | stability and effectiveness under agitation [7]
1 | O=C(C1CC1)N1CCN(Cn2sc3ccccc3c2=O)CC1 [LOC14] | well tolerated |  |  |  |  |  |  |  |  | 
2 | CCOC(=O)c1sc(NC(=O)c2ccco2)c(SC#N)c1C [CBR-5884] |  | significantly increased unmasking | more unmasking than the cho1ΔΔ mutant | significantly diminished | not strongly affected | significantly dropped | significantly decreased | absence of inhibition | precipitated at high concentrations | at least 12 h

From publication PMC11077991, “The small molecule CBR-5884 inhibits the Candida albicans phosphatidylserine synthase” (mBio, 2024)
